Data taken from ChEMBL document CHEMBL5143597, “Design and synthesis of novel spirocyclic carboxylic acids as potent and orally bioavailable DGAT1 inhibitors and their biological evaluation” (Bioorg Med Chem Lett, 2022).
Blank lines part the entries; values can stand above or below the compound they belong to.

What was measured:
[1] = Inhibition of human […] in HepG2 cells assessed as inhibition of triglyceride synthesis at 300 nM incubated for 1 hrs followed by 13C-addition of 13C-oleic acid pre-complexed with fatty acid free BSA for 6 hrs by LC/MS/MS analysis; details: time 7.0 hrs
[2] = target: 2-acylglycerol O-acyltransferase 2 (Homo sapiens) (UniProt Q3SYC2); assay: Inhibition of recombinant human MGAT2 expressed in Sf9 cell membrane assessed as inhibition of triglyceride synthesis at 10 uM for 1 hr by LC-MS-based mass spectrophotometric analysis
Sequence of 2-acylglycerol O-acyltransferase 2 (Homo sapiens) (Q3SYC2 whole entry, looked up): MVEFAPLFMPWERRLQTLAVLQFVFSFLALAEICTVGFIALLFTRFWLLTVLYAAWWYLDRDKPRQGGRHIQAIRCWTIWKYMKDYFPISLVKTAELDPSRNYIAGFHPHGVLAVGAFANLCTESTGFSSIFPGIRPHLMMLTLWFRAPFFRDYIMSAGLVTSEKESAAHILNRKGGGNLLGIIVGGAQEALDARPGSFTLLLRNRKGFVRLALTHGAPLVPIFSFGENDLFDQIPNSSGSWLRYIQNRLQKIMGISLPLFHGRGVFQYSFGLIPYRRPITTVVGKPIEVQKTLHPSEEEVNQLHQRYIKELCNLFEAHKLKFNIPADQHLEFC

[3] = Inhibition of human […] in HepG2 cells assessed as inhibition of triglyceride synthesis at 100 nM incubated for 1 hrs followed by 13C-addition of 13C-oleic acid pre-complexed with fatty acid free BSA for 6 hrs by LC/MS/MS analysis; details: time 7.0 hrs
[4] = Inhibition of human […] in HepG2 cells assessed as inhibition of triglyceride synthesis at 1 uM incubated for 1 hrs followed by 13C-addition of 13C-oleic acid pre-complexed with fatty acid free BSA for 6 hrs by LC/MS/MS analysis; details: time 7.0 hrs
[5] = Solubility of compound in PBS at pH 7.4 incubated for 4 hrs under shaking condition by UV absorbance based analysis; assay type: physicochemical
[6] = Solubility of compound in PBS at pH 9 incubated for 4 hrs under shaking condition by UV absorbance based analysis; assay type: physicochemical
[7] = Solubility of compound in PBS at pH 2 incubated for 4 hrs under shaking condition by UV absorbance based analysis; assay type: physicochemical
CYP1A2 = target: T1, CYP1A2 (Homo sapiens, UniProt P05177); assay: Inhibition of recombinant human CYP1A2 at 25 uM by fluorescence plate reader analysis; assay type: ADME
T1 sequence (P05177 whole entry): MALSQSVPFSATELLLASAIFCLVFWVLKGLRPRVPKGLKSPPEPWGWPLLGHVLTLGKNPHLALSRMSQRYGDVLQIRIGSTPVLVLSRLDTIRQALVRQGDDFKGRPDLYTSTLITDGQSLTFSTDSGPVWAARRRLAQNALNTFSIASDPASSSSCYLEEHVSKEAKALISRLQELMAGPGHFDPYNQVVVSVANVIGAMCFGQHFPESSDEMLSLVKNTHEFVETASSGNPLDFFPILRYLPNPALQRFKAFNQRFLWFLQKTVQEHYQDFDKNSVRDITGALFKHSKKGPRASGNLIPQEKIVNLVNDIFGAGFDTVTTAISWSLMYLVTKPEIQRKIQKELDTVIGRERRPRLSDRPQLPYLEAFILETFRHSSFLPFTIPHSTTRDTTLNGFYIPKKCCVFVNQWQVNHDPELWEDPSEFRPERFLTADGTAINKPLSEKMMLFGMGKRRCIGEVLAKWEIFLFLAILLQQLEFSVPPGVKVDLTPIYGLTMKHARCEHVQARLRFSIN

CYP3A4 = CYP3A4 (Homo sapiens, UniProt P08684); assay: Inhibition of recombinant human CYP3A4 at 25 uM by fluorescence plate reader analysis; assay type: ADME
Sequence of CYP3A4 (P08684 whole entry): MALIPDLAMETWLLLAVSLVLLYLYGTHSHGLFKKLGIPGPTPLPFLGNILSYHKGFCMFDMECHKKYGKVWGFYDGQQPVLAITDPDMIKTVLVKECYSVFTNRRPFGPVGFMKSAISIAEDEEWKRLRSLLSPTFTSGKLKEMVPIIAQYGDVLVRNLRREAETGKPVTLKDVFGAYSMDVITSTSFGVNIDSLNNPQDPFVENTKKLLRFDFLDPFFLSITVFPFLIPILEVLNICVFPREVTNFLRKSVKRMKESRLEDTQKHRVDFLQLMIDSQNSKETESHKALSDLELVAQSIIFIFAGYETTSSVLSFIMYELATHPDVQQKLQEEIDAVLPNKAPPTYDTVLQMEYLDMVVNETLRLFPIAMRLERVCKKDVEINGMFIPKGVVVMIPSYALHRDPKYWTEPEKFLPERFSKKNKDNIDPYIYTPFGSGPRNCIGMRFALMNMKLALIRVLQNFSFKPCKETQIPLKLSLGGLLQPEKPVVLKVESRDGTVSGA

[8] = Solubility of compound in PBS at pH 4 incubated for 4 hrs under shaking condition by UV absorbance based analysis; assay type: physicochemical
[9] = Half life in Wistar rat at 3 mg/kg, iv or 10 mg/kg, po and measured up to 24 hrs by LC-MS/MS analysis; assay type: ADME, organism-based; details: in vivo
[10] = Drug distribution in C57BL/6 mouse skeletal muscle 10 mg/kg, po and measured at 1 hrs post dose by LC-MS/MS analysis; assay type: ADME, organism-based, Skeletal muscle tissue; details: read-out: Ct
hERG (KCNH2) = hERG (KCNH2) (Homo sapiens, UniProt Q12809); assay: Displacement of [3H]astemizole from human ERG expressed in HEK293 cell membrane at 30 uM for 2 hrs by Radiometric displacement assay; assay type: toxicity; details: HEK293 cell membranes that express hERG, probe [3H]astemizole
Sequence of hERG (KCNH2) (Q12809 whole entry): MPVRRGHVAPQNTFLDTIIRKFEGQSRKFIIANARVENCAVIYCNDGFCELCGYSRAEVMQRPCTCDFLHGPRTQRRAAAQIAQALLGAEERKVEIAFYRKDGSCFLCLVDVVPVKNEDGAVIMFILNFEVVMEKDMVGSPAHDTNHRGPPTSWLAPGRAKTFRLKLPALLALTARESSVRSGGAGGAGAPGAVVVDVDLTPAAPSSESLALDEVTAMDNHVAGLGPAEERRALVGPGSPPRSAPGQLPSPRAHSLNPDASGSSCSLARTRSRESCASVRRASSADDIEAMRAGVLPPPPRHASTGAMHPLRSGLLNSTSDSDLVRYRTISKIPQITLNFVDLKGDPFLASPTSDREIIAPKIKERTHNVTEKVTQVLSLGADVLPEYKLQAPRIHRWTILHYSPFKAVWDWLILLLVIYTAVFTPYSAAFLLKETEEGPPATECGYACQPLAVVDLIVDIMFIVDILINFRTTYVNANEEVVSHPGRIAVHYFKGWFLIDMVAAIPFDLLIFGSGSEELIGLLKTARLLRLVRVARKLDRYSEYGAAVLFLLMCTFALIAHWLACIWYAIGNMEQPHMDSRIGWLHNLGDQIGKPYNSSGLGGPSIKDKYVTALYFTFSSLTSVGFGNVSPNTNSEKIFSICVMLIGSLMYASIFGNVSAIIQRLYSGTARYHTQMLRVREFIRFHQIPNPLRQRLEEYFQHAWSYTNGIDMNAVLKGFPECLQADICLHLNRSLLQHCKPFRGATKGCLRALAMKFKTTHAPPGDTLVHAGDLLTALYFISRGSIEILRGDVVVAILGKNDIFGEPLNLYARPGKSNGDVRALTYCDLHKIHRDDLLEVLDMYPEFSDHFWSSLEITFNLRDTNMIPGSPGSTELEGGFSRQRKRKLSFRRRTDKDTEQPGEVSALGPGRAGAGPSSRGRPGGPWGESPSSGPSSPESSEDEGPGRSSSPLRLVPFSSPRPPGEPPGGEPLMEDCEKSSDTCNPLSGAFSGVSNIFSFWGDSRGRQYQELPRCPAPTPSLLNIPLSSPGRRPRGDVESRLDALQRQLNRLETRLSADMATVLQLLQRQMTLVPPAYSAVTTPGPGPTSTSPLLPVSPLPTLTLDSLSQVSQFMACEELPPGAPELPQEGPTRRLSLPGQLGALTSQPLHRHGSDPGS

[11] = Drug distribution in C57BL/6 mouse liver 10 mg/kg, po and measured at 8 hrs post dose by LC-MS/MS analysis; assay type: ADME, organism-based; details: read-out: Ct
[12] = AUC in C57BL/6 mouse at 3 mg/kg, iv or 10 mg/kg, po and measured up to 24 hrs by LC-MS/MS analysis; assay type: ADME, organism-based; set-up: time < 24 hrs, dose 3 mg/kg, route iv; details: in vivo
[13] = Drug distribution in C57BL/6 mouse brain 10 mg/kg, po and measured at 2 hrs post dose by LC-MS/MS analysis; assay type: ADME, organism-based; details: read-out: Ct
[14] = Half life in C57BL/6 mouse at 3 mg/kg, iv or 10 mg/kg, po and measured up to 24 hrs by LC-MS/MS analysis; assay type: ADME, organism-based; details: in vivo
[15] = Cmax in Wistar rat at 3 mg/kg, iv or 10 mg/kg, po and measured up to 24 hrs by LC-MS/MS analysis; assay type: ADME, organism-based; set-up: dose 3 mg/kg, time < 24 hrs, route iv; details: in vivo
[16] = Drug distribution in C57BL/6 mouse plasma 10 mg/kg, po and measured at 2 hrs post dose by LC-MS/MS analysis; assay type: ADME, organism-based
[17] = Oral bioavailability in C57BL/6 mouse 10 mg/kg or 3 mg/kg, iv and measured up to 24 hrs by LC-MS/MS analysis; assay type: ADME, organism-based; details: in vivo
[18] = Drug distribution in C57BL/6 mouse liver 10 mg/kg, po and measured at 2 hrs post dose by LC-MS/MS analysis; assay type: ADME, organism-based; details: read-out: Ct
[19] = Tmax in Wistar rat at 3 mg/kg, iv or 10 mg/kg, po and measured up to 24 hrs by LC-MS/MS analysis; assay type: ADME, organism-based; details: in vivo
[20] = Drug distribution in C57BL/6 mouse skeletal muscle 10 mg/kg, po and measured at 2 hrs post dose by LC-MS/MS analysis; assay type: ADME, organism-based, Skeletal muscle tissue; details: read-out: Ct
[21] = Metabolic stability in mouse liver microsomes assessed as parent compound remaining at 1 uM and measured at 30 mins by LC-MS/MS analysis; assay type: ADME, Microsome; details: read-out: Stability
[22] = Drug distribution in C57BL/6 mouse adipose tissue 10 mg/kg, po and measured at 1 hrs post dose by LC-MS/MS analysis; assay type: ADME, organism-based; details: read-out: Ct
[23] = Metabolic stability in rat liver microsomes assessed as parent compound remaining at 1 uM and measured at 30 mins by LC-MS/MS analysis; assay type: ADME, Microsome; details: read-out: Stability
[24] = Drug distribution in C57BL/6 mouse adipose tissue 10 mg/kg, po and measured at 8 hrs post dose by LC-MS/MS analysis; assay type: ADME, organism-based; details: read-out: Ct
[25] = Plasma protein binding in rat; assay type: ADME, cell-free; details: read-out: PPB
[26] = Volume of distribution at steady state in Wistar rat at 3 mg/kg, iv or 10 mg/kg, po and measured up to 24 hrs by LC-MS/MS analysis; assay type: ADME, organism-based; details: in vivo, read-out: Vdss
[27] = target: T2, Diacylglycerol O-acyltransferase 1 (Homo sapiens, UniProt O75907); assay: Inhibition of human DGAT1 in serum starved HEK293 cells assessed as inhibition of triglyceride synthesis incubated for 20 mins followed by 13C-addition of 13C-oleic acid pre-complexed with BSA for 120 mins by LC-MS-based mass spectrophotometric analysis; assay type: cell-based
T2 sequence (O75907 whole entry): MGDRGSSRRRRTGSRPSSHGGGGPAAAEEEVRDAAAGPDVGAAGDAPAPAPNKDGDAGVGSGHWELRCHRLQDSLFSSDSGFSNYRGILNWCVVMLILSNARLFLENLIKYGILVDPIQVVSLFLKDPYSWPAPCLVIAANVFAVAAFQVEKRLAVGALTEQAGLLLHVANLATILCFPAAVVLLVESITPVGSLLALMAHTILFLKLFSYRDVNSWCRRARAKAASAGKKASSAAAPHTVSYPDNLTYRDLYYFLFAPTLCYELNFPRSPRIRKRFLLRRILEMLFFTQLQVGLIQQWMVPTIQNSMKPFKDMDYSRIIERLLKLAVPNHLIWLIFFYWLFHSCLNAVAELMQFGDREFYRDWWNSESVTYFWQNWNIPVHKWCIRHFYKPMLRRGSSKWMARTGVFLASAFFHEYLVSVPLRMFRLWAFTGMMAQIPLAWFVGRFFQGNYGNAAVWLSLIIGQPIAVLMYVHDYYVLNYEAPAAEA

[28] = Oral bioavailability in Wistar rat at 10 mg/kg or 3 mg/kg, iv and measured up to 24 hrs by LC-MS/MS analysis; assay type: ADME, organism-based; details: in vivo
[29] = Metabolic stability in human liver microsomes assessed as parent compound remaining at 1 uM and measured at 30 mins by LC-MS/MS analysis; assay type: ADME, Microsome; details: read-out: Stability
[30] = Tmax in C57BL/6 mouse at 3 mg/kg, iv or 10 mg/kg, po and measured up to 24 hrs by LC-MS/MS analysis; assay type: ADME, organism-based; details: in vivo
[31] = Drug distribution in C57BL/6 mouse skeletal muscle 10 mg/kg, po and measured at 8 hrs post dose by LC-MS/MS analysis; assay type: ADME, organism-based, Skeletal muscle tissue; details: read-out: Ct
[32] = Clearance in C57BL/6 mouse at 3 mg/kg, iv or 10 mg/kg, po and measured up to 24 hrs by LC-MS/MS analysis; assay type: ADME, organism-based; details: in vivo
[33] = Volume of distribution at steady state in C57BL/6 mouse at 3 mg/kg, iv or 10 mg/kg, po and measured up to 24 hrs by LC-MS/MS analysis; assay type: ADME, organism-based; details: in vivo, read-out: Vdss
[34] = Drug distribution in C57BL/6 mouse plasma 10 mg/kg, po and measured at 8 hrs post dose by LC-MS/MS analysis; assay type: ADME, organism-based
[35] = Apparent permeability across apical to basolateral side in MDCK cells at 2.5 uM for 90 mins; assay type: ADME, cell-based, Canis lupus familiaris; details: dog
[36] = Drug distribution in C57BL/6 mouse plasma 10 mg/kg, po and measured at 1 hrs post dose by LC-MS/MS analysis; assay type: ADME, organism-based
[37] = Drug distribution in C57BL/6 mouse liver 10 mg/kg, po and measured at 1 hrs post dose by LC-MS/MS analysis; assay type: ADME, organism-based; details: read-out: Ct
[38] = AUC in Wistar rat at 3 mg/kg, iv or 10 mg/kg, po and measured up to 24 hrs by LC-MS/MS analysis; assay type: ADME, organism-based; set-up: dose 3 mg/kg, time < 24 hrs, route iv; details: in vivo
[39] = Drug distribution in C57BL/6 mouse brain 10 mg/kg, po and measured at 1 hrs post dose by LC-MS/MS analysis; assay type: ADME, organism-based; details: read-out: Ct
[40] = Plasma protein binding in mouse; assay type: ADME, cell-free; details: read-out: PPB (converted)
[41] = Cmax in C57BL/6 mouse at 3 mg/kg, iv or 10 mg/kg, po and measured up to 24 hrs by LC-MS/MS analysis; assay type: ADME, organism-based; set-up: dose 3 mg/kg, time < 24 hrs, route iv; details: in vivo
[42] = Clearance in Wistar rat at 3 mg/kg, iv or 10 mg/kg, po and measured up to 24 hrs by LC-MS/MS analysis; assay type: ADME, organism-based; details: in vivo
[43] = Drug distribution in C57BL/6 mouse adipose tissue 10 mg/kg, po and measured at 2 hrs post dose by LC-MS/MS analysis; assay type: ADME, organism-based; details: read-out: Ct

inhibition [1]: 82%
inhibition [2]: 16%
inhibition [3]: 55%
inhibition [4]: 90%
SMILES: O=C(O)CC1CCC2(CC1)CCC(c1ccc(NC(=O)c3nnc(Nc4ccc(F)c(F)c4)o3)cn1)CC2 (stereo not given) [listing 1 of 2 here]

inhibition [1]: 94%
inhibition [2]: 16%
inhibition [3]: 88%
inhibition [4]: 96%
SMILES: O=C(Nc1ccc(C2CCC3(CC2)CC(C(=O)O)C3)cc1)c1nnc(Nc2ccc(F)c(F)c2)o1 (stereo not given)

solubility at 4 h [5]: 1060 µM
solubility at 4 h [6]: 723 µM
solubility at 4 h [7]: 179 µM
inhibition at 25 µM (CYP1A2): 12%
inhibition at 25 µM (CYP3A4): 10%
solubility at 4 h [8]: 36 µM
SMILES: O=C(Nc1ccc(N2CCC3(CC2)CC(C(=O)[O-])C3)nc1)c1nnc(Nc2ccc(F)c(F)c2)o1.[Na+]

half-life [9]: 384 min
concentration at 1 h [10]: 520 nM
concentration at 8 h [11]: 28 µM
AUC at 24 h [12]: 4.4 µM·h
concentration at 2 h [13]: 60 nM
half-life [14]: 126 min
Cmax [15]: 3.8 µM
concentration at 2 h [16]: 1860 nM
bioavailability [17]: 53%
concentration at 2 h [18]: 73 µM
Tmax [19]: 1.3 h
concentration at 2 h [20]: 290 nM
remaining at 0.5 h, 1 µM [21]: 88%
concentration at 1 h [22]: 740 nM
remaining at 0.5 h, 1 µM [23]: 71%
concentration at 8 h [24]: 110 nM
fraction unbound [25]: < 0.01
Vd [26]: 0.5 L/kg
IC50 [27]: 16 nM
bioavailability [28]: 9%
remaining at 0.5 h, 1 µM [29]: 100%
Tmax [30]: 30 min
concentration at 8 h [31]: 70 nM
clearance [32]: 21 mL/min/kg
Vd [33]: 1.8 L/kg
concentration at 8 h [34]: 80 nM
Papp A→B at 1.5 h, 2.5 µM [35]: 4.7 ×10⁻⁶ cm/s
concentration at 1 h [36]: 2760 nM
concentration at 1 h [37]: 74 µM
AUC at 24 h [38]: 23.7 µM·h
concentration at 1 h [39]: 20 nM
fraction unbound [40]: 0.03
Cmax [41]: 2600 nM
clearance [42]: 1.2 mL/min/kg
concentration at 2 h [43]: 470 nM
SMILES: O=C(O)CC1CCC2(CC1)CCC(c1ccc(NC(=O)c3nnc(Nc4ccc(F)c(F)c4)o3)cn1)CC2 (stereo not given) [listing 2 of 2 here]
inhibition at 2 h, 30 µM (hERG (KCNH2)): 26%
